Measured values published in the NIST ThermoML archive (doi:10.1021/acs.jced.8b00729).

Conditions: Gamma attenuation method

C1C[C@@H]2[C@H]3CC[C@H](C3)[C@@H]2C1 [exo-tetrahydrodicyclopentadiene]
Conditions	mass density [kg/m3]
267.3 K, 1480 kPa, Liquid	961.5
267.3 K, 6000 kPa, Liquid	962.3
267.9 K, 700 kPa, Liquid	960.4
267.9 K, 3060 kPa, Liquid	962.1
289.1 K, 6000 kPa, Liquid	952
290.2 K, 1480 kPa, Liquid	939.1
290.9 K, 700 kPa, Liquid	937.8
292.8 K, 3060 kPa, Liquid	940.4
307 K, 700 kPa, Liquid	924.7
307.5 K, 1480 kPa, Liquid	928.1
308.7 K, 3060 kPa, Liquid	930.1
309 K, 6000 kPa, Liquid	940.8
335.4 K, 6000 kPa, Liquid	918.1
336.6 K, 3060 kPa, Liquid	911.5
337.1 K, 700 kPa, Liquid	908.7
337.2 K, 1480 kPa, Liquid	910.1
368.4 K, 700 kPa, Liquid	881.1
369.6 K, 1480 kPa, Liquid	884.2
371.3 K, 3060 kPa, Liquid	884.3
373.9 K, 6000 kPa, Liquid	893.8
391.4 K, 6000 kPa, Liquid	883.9
391.9 K, 700 kPa, Liquid	861.9
394.8 K, 1480 kPa, Liquid	863.2
394.8 K, 3060 kPa, Liquid	864.7
430.8 K, 6000 kPa, Liquid	850.6
431.4 K, 700 kPa, Liquid	824.8
431.4 K, 1480 kPa, Liquid	832.6
431.4 K, 3060 kPa, Liquid	834.1
453.2 K, 3060 kPa, Liquid	820.5
453.8 K, 700 kPa, Liquid	801.2
454.4 K, 1480 kPa, Liquid	815.4
454.6 K, 6000 kPa, Liquid	829.8
483.1 K, 1480 kPa, Liquid	796.7
483.8 K, 700 kPa, Liquid	779.5
485.1 K, 3060 kPa, Liquid	800.4
485.9 K, 6000 kPa, Liquid	807
510 K, 700 kPa, Liquid	759.3
510.1 K, 1480 kPa, Liquid	772.1
510.3 K, 3060 kPa, Liquid	783.9
512.1 K, 6000 kPa, Liquid	777.4
529.9 K, 3060 kPa, Liquid	756
530.4 K, 1480 kPa, Liquid	743
531.9 K, 6000 kPa, Liquid	752.2
532.4 K, 700 kPa, Liquid	737.7
562.1 K, 700 kPa, Liquid	646.3
563.8 K, 1480 kPa, Liquid	716.9
564.1 K, 3060 kPa, Liquid	726.9
566.8 K, 6000 kPa, Liquid	719.2
603.4 K, 700 kPa, Gas	25.5
617.6 K, 1480 kPa, Gas	153.4
623.8 K, 6000 kPa, Liquid	661.1
627.1 K, 3060 kPa, Liquid	633.8
651.6 K, 700 kPa, Gas	22.9
651.9 K, 3060 kPa, Liquid	590.9
652.4 K, 6000 kPa, Liquid	615.5
652.9 K, 1480 kPa, Gas	55.3
681.8 K, 6000 kPa, Liquid	579.7
682.7 K, 700 kPa, Gas	29.4
683.2 K, 1480 kPa, Gas	57.8
685 K, 3060 kPa, Gas	193.2
714 K, 6000 kPa, Gas	465.2
715 K, 3060 kPa, Gas	124.1
715.8 K, 1480 kPa, Gas	58
730.2 K, 700 kPa, Gas	19.5
743.7 K, 3060 kPa, Gas	104.8
743.8 K, 6000 kPa, Gas	256.7
744 K, 1480 kPa, Gas	52.4
744.7 K, 700 kPa, Gas	19.7
771.9 K, 700 kPa, Gas	26.4
773.7 K, 1480 kPa, Gas	50.2
773.7 K, 6000 kPa, Gas	152.1
774 K, 3060 kPa, Gas	96.1
803.3 K, 700 kPa, Gas	24.4
803.8 K, 3060 kPa, Gas	87.6
804 K, 1480 kPa, Gas	47.9
804.1 K, 6000 kPa, Gas	142
833 K, 700 kPa, Gas	25.4
833.3 K, 1480 kPa, Gas	52.1
833.4 K, 6000 kPa, Gas	120.1
833.5 K, 3060 kPa, Gas	83.9
872.2 K, 3060 kPa, Gas	70.8
872.5 K, 1480 kPa, Gas	46.1
873.3 K, 700 kPa, Gas	24.4
873.4 K, 6000 kPa, Gas	110.1
